Earlier results in US20110294894A1, “Pharmaceutical Composition for the Treatment of Solar Urticaria” (priority 2010, published 2011).

Tested on: severe antihistamine-resistant solar urticaria
Conditions: single case, Güzelbey et al., 2008

omalizumab
effectiveness in solar urticaria: effective
